According to patent US8901158B2, “Treatment of bipolar disorder” (Isis Innovation Ltd., priority 2011, dated 2014):

Columns and labels:
[1] = target: T1, human inositol monophosphatase (Homo sapiens, UniProt P29218); assay: in vitro IMPase inhibition, malachite green phosphate assay; assay type: biochemical; conditions: for IC50: human IMPase, constant amount of inositol monophosphate
T1 construct: made in house; host or cells: E. coli BL21 (DE3) pLysS
T1 sequence (P29218 1-277): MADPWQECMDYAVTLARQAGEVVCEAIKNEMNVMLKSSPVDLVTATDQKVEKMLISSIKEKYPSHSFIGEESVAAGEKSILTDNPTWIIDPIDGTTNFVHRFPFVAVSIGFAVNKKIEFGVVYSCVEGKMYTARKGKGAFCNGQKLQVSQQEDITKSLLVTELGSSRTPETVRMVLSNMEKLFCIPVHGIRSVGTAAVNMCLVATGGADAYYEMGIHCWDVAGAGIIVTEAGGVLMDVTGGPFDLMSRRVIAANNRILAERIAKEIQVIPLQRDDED
From the text: Human inositol monophosphatase cDNA was ordered from Geneservice, Source Bioscience, Cambridge, UK. The cDNA was inserted into plasmid pRSET5a, which was then transformed into JM109 competent cells. These cells were allowed to multiply and the plasmid was then extracted from the cells. The plasmid was then transformed into expression bacteria, E.coli strain BL21 (DE3) pLysS. […] The next day the cells were lysed and the soluble fraction, which contained the enzyme, was collected. Purification was carried out in 3 stages. The soluble fraction was heated at 68° C. for 1 hour and then centrifuged. The supernatant was taken and run through a Q-sepharose column (Pharmacia). Different fractions were collected and assessed for activity. The active fractions were then passed through a Tricorn MonoQ 5/50 GL column (GE Healthcare, UK) for further purification.
Each enzymatic reaction using human inositol monophosphatase contained 0.00013 mg of enzyme (0.0673 mg/mL). The substrate inositol monophosphate (Alexis Chemicals) was diluted with the appropriate buffer to make up a concentration of 50 mM stock. The stock was then diluted with buffer to yield the following concentrations of substrate: 0 mM, 0.1 mM, 0.5 mM, 1.0 mM, 1.5 mM, 2.5 mM, 5 mM, 10 mM, 20 mM, 25 mM and 30 mM. From this 2 μL of substrate was added to each reaction well giving a tenfold dilution of substrate to 0 mM, 0.01 mM, 0.05 mM, 0.1 mM, 0.15 mM, 0.25 mM, 0.5 mM, 1 mM, 2 mM, 2.5 mM and 3 mM. The reaction buffer contained 1 mM EGTA, 150 mM KCl, 3 mM MgCl2, 0.5 ng/mL BSA, 50 mM Tri, HCl, pH 7.4 and 0.01% Triton X100.
A malachite green assay was used for the quantitative determination of free inorganic phosphate present at the end of the IMPase reaction. This involved dissolving 4.2% w/v ammonium molybdate in 4M hydrochloric acid. The Malachite Green itself was made up to 0.045% w/v concentration. From these stocks, a 3:1 malachite green:ammonium molybdate mixture was prepared and vortexed for thirty minutes. The malachite green forms a complex of ammonium molybdate:malachite green:inorganic phosphate in the presence of free inorganic phosphate. To each reaction plate, duplicate wells of a range of known phosphate concentrations were prepared within the concentration range of 0-300 μM with each well containing 20 μL of solution. The phosphate standards were made from serial dilutions of 1M potassium dihydrogen phosphate using double distilled H2O. To each well was added 180 μL of malachite green:ammonium molybdate mix. The colour produced by the reaction between the inorganic phosphate and malachite green:ammonium molybdate was proportional to the amount of phosphate present. The colour was allowed to develop for 15 min and then the plate was read on a TECAN Sunrise microplate reader at 595 nm wavelength.
For the reactions whose results are shown in FIG. 2, lithium (Sigma) was dissolved in double-distilled H2O and diluted appropriately to the concentration of 10 mM with 2 μL of lithium being added per well to yield a final well concentration of 1 mM. Stock concentrations of lithium were also made from this. L690330 was purchased from Sigma Chemicals, and was made up to a 1 mM stock concentration using H2O. From this stock the following concentrations were prepared using serial dilutions with water: 300 μM to 30 nM. These concentrations were used to produce a concentration-inhibition curve for the enzyme. Ebselen was purchased from BioFocus as a 10 mM stock in DMSO. […]

inositol monophosphatase = assay: mouse ex vivo assay of IMPase activity in brain homogenate; conditions: 5 mg/kg i.p., CD1 male mice, 1 hour (FIG. 5)
Experimental: To determine the bio-availability of ebselen, a mouse ex vivo assay was used. In this assay mice were given an intraperitoneal (i.p.) injection of 5 mg/kg ebselen solublized in betacyclodextrin, according to the following procedure. A stock solution of 0.5 M ebselen in DMSO and a stock of 40% 2-Hydroxy propyl-beta-cyclodextrin (HPBCD) were made. A 3.5 mM solution of ebselen (from 0.5 M stock) was made into 40% HPBCD and finally, to obtain the concentration of 350 μM ebselen, a 1 in 10 dilution was carried out. A control solution was made containing the same dilution of DMSO and HPBCD. The volume of drug/vehicle injected i.p. into the mouse was 1 ml (for the animals dosed with ebselen this is approximately 5 mg/kg assuming each mouse weighs about 20 g). CD1 male mice, weighing approximately 20 g were used. The animals were dosed for one hour with either drug or vehicle before being killed by cervical dislocation. The brains were quickly dissected out and frozen in liquid nitrogen. […]
The protein concentration of each brain homogenate was determined and a stock of 2.5 mg of protein was made from the homogenate and stored. […] The intensity of the green color formed was measured at 595 nm.

[2] = system: inositol levels in mice brains; assay: ex vivo inositol levels in mice brains by 1H NMR; parameters: species or system mouse; conditions: 1 hour after intraperitoneal injection, p<0.001 (FIG. 6)
Experimental: Similar conclusions can be reached from the results shown in FIG. 6, in which inositol levels in mice brains were measured ex vivo using ^1H NMR spectroscopy. The results were obtained from brains removed from mice 1 hour after intraperitoneal injection either with ebselen or with a control.

mice [3] = assay: amphetamine-induced hyperactivity (animal model of mania); assay type: in vivo, mouse; conditions: ebselen i.p., d-amphetamine 4 mg/kg after 60 minutes, 60 to 120 minutes, p<0.001 (FIGS. 7, 8)
Experimental: Activity and monitoring evaluation of mice was also studied. Mice were given an i.p. injection with saline (control) or ebselen (1, 5 or 10 mg/kg) and placed in a 35×35 cm perspex arena where their location was recorded by the Ethovision videotracking system (Noldus, Wageningen, The Netherlands). After 60 minutes, the mice were injected with d-amphetamine (4 mg/kg) or control. The Ethovision system follows the centre of the body of the mouse and records its position according to the location of this point. Data analysis was performed by Ethovision software, and distances moved within each 5 minute interval were calculated and plotted. The total distance moved was computed for the time frame from 60 to 120 minutes following the beginning of data acquisition. Amphetamine-induced hyperactivity is used as an animal model of mania, and is sensitive to mood-stabilising drugs such as lithium.

mice [4] = assay: rearing experiments (infrared beam breaks, open-field test); assay type: in vivo, mouse; conditions: p=0.023 (FIG. 9)
Experimental: Rearing experiments were also carried out as follows. Mice were allowed to move freely within a caged equipped with infrared beam lines placed at two heights.
Mice could only break the upper beams by rearing.

mice [5] = assay: rearing experiments with intracerebroventricular inositol; assay type: in vivo, mouse; conditions: ebselen 5 mg/kg i.p., after 60 minutes 5.5 μmol inositol intracerebroventricular (FIG. 10)
Experimental: In these rearing experiments, mice were given an intraperitoneal injection of control or ebselen (5 mg/kg), and after 60 minutes were given an intracerebroventricular injection of control or 5.5 μmol inositol.

rats = conditions: cited from earlier work
bovine IMPase = target: T2, bovine IMPase (Bos taurus, UniProt P20456); conditions: reported value; cited from earlier work
T2 sequence (P20456 1-277): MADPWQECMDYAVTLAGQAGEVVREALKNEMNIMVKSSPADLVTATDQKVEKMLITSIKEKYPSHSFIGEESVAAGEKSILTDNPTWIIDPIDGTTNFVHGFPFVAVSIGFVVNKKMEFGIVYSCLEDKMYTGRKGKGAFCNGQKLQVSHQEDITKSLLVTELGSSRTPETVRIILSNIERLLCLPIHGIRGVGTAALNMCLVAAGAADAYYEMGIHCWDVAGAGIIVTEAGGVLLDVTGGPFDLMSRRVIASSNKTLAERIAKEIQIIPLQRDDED

With O=c1c2ccccc2sn1-c1ccccc1 [2-phenyl-1,2-benzisothiazol-3(2H)-one] the “in vitro inhibition of IMPase” value ([1]; 30 μM compound (FIG. 4)) was “inhibition of IMPase is also achieved” and the IC50 [1] was 35000 nM.
For O=c1c2ccccc2[se]n1-c1ccccc1 [Ebselen, 2-phenyl-1,2-benzisoselenazol-3(2H)-one], the IC50 [1] was ~2000 nM, the mode of inhibition ([1]; purified human IMPase, various ebselen and substrate concentrations (FIG. 3)) was “non-competitive mode of inhibition” and the “amount of phosphate detected (IMPase activity in brain homogenate) compared to the control” value (inositol monophosphatase) was “significantly lower”. The “inositol levels in the brain versus control” value [2] was “significantly lower”, the “level of amphetamine-induced hyperactivity” value (mice [3]) was “reduced level of amphetamine-induced hyperactivity” and the “number of beam breaks (rearing) during the open-field test” value (mice [4]) was “significantly reduced”. The “effects of ebselen on suppressing rearing behaviour after inositol injection” value (mice [5]) was “significantly reduced” and the LD50 (rats) was “greater than 1000 mg/kg”.
For CC(Oc1ccc(O)cc1)(P(=O)(O)O)P(=O)(O)O [L690330], the IC50 [1] is given as 1500 nM and the IC50 (bovine IMPase) is given as ~300 nM.
